Test results reported in the NIST ThermoML archive (doi:10.1021/je100358e).
Numbers after ± are expanded uncertainties.

How the values were obtained:
[1] = Crystal; visual observation
[2] = Molar enthalpy of transition or fusion; settings: Crystal; DSC

In the case of Oc1ccc2ccccc2c1 [2-hydroxynaphthalene], the Normal melting temperature [1] is reported as 121.20 ± 1.5 °C and the “Molar enthalpy of transition or fusion” value [2] is reported as 5.04 ± 0.717 kcal/mol.
